According to patent publication US12344603B2 (Genentech, Inc., priority 2020, dated 2025):
Where a name gives a salt, the structure may show the parent alone.

Target: IRE1α (Homo sapiens (Human), UniProt O75460, D688N)
Experiment: IRE1α TR-FRET competition binding assay (IRE1α HTRF)
Settings: TR-FRET competition binding to kinase domain of IRE1α
Method in brief: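 Kinase domain (0.25 nM) pre-bound to 2 nM Eu anti-His antibody for 1 h at 4° C in HEPES pH 7.5/MgCl2/Brij 35/DTT/gamma globulin buffer, then mixed with compounds and 2 nM Alexa 647 ATP-competitive probe. 1 h at room temperature; probe displacement read as TR-FRET (Ex 347 nm, Em 665/615 nm).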

Chain of IRE1α (O75460 547-977 D688N): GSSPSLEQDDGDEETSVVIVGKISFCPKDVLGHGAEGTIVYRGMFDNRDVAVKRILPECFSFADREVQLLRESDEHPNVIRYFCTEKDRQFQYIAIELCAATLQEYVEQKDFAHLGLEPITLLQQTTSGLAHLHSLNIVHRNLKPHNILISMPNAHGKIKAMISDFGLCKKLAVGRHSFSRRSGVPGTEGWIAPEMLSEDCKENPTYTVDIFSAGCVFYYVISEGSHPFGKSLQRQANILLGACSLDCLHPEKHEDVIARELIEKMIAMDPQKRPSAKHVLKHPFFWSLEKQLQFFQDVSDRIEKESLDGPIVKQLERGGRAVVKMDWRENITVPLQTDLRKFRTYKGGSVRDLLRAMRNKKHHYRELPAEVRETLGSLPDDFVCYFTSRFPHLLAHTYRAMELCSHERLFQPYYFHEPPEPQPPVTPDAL

Row | IC50 [nM] | SMILES
1 | 0.95 | Cc1cc(NS(=O)(=O)CCC(F)(F)F)ncc1-c1nc2cnc(N[C@H]3CC[C@H](N(C)C)CC3)nc2n(C(C)C)c1=O [Compound 186, N-(5-(2-(((1r,4r)-4-(Dimethylamino)cyclohexyl)amino)-8-isopropyl-7-oxo-7,8-dihydropteridin-6-yl)-4-methylpyridin-2-yl)-3,3,3-trifluoropropane-1-sulfonamide]
2 | 0.19 | CC(C)n1c(=O)c(-c2ccc(NS(=O)(=O)C3CCCC3)c(F)c2)cc2cnc(N[C@H]3CC[C@H](N(C)C)CC3)nc21 [Compound 134, N-(4-(2-(((1r,4r)-4-(Dimethylamino)cyclohexyl)amino)-8-isopropyl-7-oxo-7,8-dihydropyrido[2,3-d]pyrimidin-6-yl)-2-fluorophenyl)cyclopentanesulfonamide hydrochloride]
3 | 0.3 | CC(C)n1c(=O)c(-c2ccc(NS(=O)(=O)CC34CCC(CC3)C4)c(F)c2)nc2cnc(N[C@H]3CC[C@H](N(C)C)CC3)nc21 [Example 270, N-[4-[2-[[4-(Dimethylamino)cyclohexyl]amino]-8-isopropyl-7-oxo-pteridin-6-yl]-2-fluoro-phenyl]-1-norbornan-1-yl-methanesulfonamide]
4 | 0.18 | CC(C)n1c(=O)c(-c2ccc(NS(=O)(=O)CC3CC(F)(F)C3)c(F)c2)cc2cnc(N[C@H]3CC[C@H](N(C)CCF)CC3)nc21 [Compound 156, 1-(3,3-Difluorocyclobutyl)-N-(2-fluoro-4-(2-(((1r,4r)-4-((2-fluoroethyl)(methyl)amino)cyclohexyl)amino)-8-isopropyl-7-oxo-7,8-dihydropyrido[2,3-d]pyrimidin-6-yl)phenyl)methanesulfonamide]
5 | 0.26 | CC(C)n1c(=O)c(-c2ccc(NS(=O)(=O)CCC(F)(F)F)c(F)c2F)cc2cnc(N[C@H]3CC[C@H](N(C)C)CC3)nc21 [Compound 197, N-(4-(2-(((1,4-trans)-4-(Dimethylamino)cyclohexyl)amino)-8-isopropyl-7-oxo-7,8-dihydropyrido[2,3-d]pyrimidin-6-yl)-2,3-difluorophenyl)-3,3,3-trifluoropropane-1-sulfonamide]
6 | 28 | CCn1c(=O)c(-c2cc(F)c(NS(=O)(=O)CC3(F)CC3)c(F)c2F)cc2cnc(N[C@@H]3CNC[C@@H](F)C3)nc21 [Compound 48, N-(4-(8-ethyl-2-(((3S,5S)-5-fluoropiperidin-3-yl)amino)-7-oxo-7,8-dihydropyrido[2,3-d]pyrimidin-6-yl)-2,3,6-trifluorophenyl)-1-(1-fluorocyclopropyl)methanesulfonamide]
7 | 0.4 | CC(C)n1c(=O)c(-c2ccc(NS(=O)(=O)CCC(C)(F)F)nc2)nc2cnc(N[C@H]3CC[C@H](N(C)C)CC3)nc21 [Example 238, N-[5-[2-[[4-(Dimethylamino)cyclohexyl]amino]-8-isopropyl-7-oxo-pteridin-6-yl]-2-pyridyl]-3,3-difluoro-butane-1-sulfonamide]
8 | 0.2 | CC(C)n1c(=O)c(-c2ccc(NS(=O)(=O)CCC(F)(F)F)cn2)cc2cnc(N[C@H]3CC[C@H](N(C)C)CC3)nc21 [Example 218, N-(6-(2-(((1r,4r)-4-(dimethylamino)cyclo-hexyl)amino)-8-isopropyl-7-oxo-7,8-dihydropyrido[2,3-d]-pyrimidin-6-yl)pyridin-3-yl)-3,3,3-trifluoro-propane-1-sulfonamide]
9 | 36 | CCCS(=O)(=O)Nc1c(F)ccc2c(-c3cc4cnc(N[C@H]5CCCNC5)nc4n(C)c3=O)cccc12 [Compound 8, (S)—N-(2-Fluoro-5-(8-methyl-7-oxo-2-(piperidin-3-ylamino)-7,8-dihydropyrido[2,3-d]pyrimidin-6-yl)naphthalen-1-yl)propane-1-sulfonamide]
10 | 2.2 | CC(C)n1c(=O)c(-c2ccc(F)c(NS(=O)(=O)Cc3ccccc3)c2F)cc2cnc(N[C@H]3CCCNC3)nc21 [Compound 19, (S)—N-(2,6-Difluoro-3-(8-isopropyl-7-oxo-2-(piperidin-3-ylamino)-7,8-dihydropyrido[2,3-d]pyrimidin-6-yl)phenyl)-1-phenylmethanesulfonamide]
11 | 0.3 | Cc1nc(NS(=O)(=O)c2ccccc2F)ccc1-c1nc2cnc(N[C@H]3CC[C@H](N(C)C)CC3)nc2n(C(C)C)c1=O [Example 253, N-[5-[2-[[4-(Dimethylamino)cyclohexyl]amino]-8-isopropyl-7-oxo-pteridin-6-yl]-6-methyl-2-pyridyl]-2-fluoro-benzenesulfonamide]
12 | 0.13 | CC(C)n1c(=O)c(-c2ccc(NS(=O)(=O)CCC(F)(F)F)c(F)c2)cc2cnc(N[C@H]3CC[C@H](N(C)C)CC3)nc21 [Compound 91, N-(4-(2-(((1r,4r)-4-(Dimethylamino)cyclohexyl)amino)-8-isopropyl-7-oxo-7,8-dihydropyrido[2,3-d]pyrimidin-6-yl)-2-fluorophenyl)-3,3,3-trifluoropropane-1-sulfonamide]
13 | 1.2 | CC(C)Nc1ncc2cc(-c3cc(F)c(NS(=O)(=O)Cc4ccccc4)c(F)c3F)c(=O)n(C(C)C)c2n1 [Compound 20, 1-Phenyl-N-(2,3,6-trifluoro-4-(8-isopropyl-2-(isopropylamino)-7-oxo-7,8-dihydropyrido[2,3-d]pyrimidin-6-yl)phenyl)methanesulfonamide]
14 | 0.3 | Cc1nc(NS(=O)(=O)c2ccccc2F)ccc1-c1cc2cnc(N[C@H]3CC[C@H](N(C)C)CC3)nc2n(C(C)C)c1=O [Compound 140, N-(5-(2-(((1r,4r)-4-(Dimethylamino)cyclohexyl)amino)-8-isopropyl-7-oxo-7,8-dihydropyrido[2,3-d]pyrimidin-6-yl)-6-methylpyridin-2-yl)-2-fluorobenzenesulfonamide]
15 | 0.27 | CC(C)n1c(=O)c(-c2ccc(NS(=O)(=O)c3ccccc3Cl)nc2)cc2cnc(N[C@@H]3CNC[C@@H](F)C3)nc21 [Compound 147, 2-Chloro-N-(5-(2-(((3S,5S)-5-fluoropiperidin-3-yl)amino)-8-isopropyl-7-oxo-7,8-dihydropyrido[2,3-d]pyrimidin-6-yl)pyridin-2-yl)benzenesulfonamide]
16 | 0.1 | CC(C)n1c(=O)c(-c2ccc(NS(=O)(=O)CC3CCCC3(F)F)c(F)c2)nc2cnc(N[C@H]3CC[C@H](N(C)C)CC3)nc21 (mixture of isomers) [Example 264, 1-(2,2-Difluorocyclopentyl)-N-[4-[2-[[4-(dimethylamino)cyclohexyl]amino]-8-isopropyl-7-oxo-pteridin-6-yl]-2-fluoro-phenyl]methanesulfonamide]
17 | 0.2 | CC(C)n1c(=O)c(-c2ccc(NS(=O)(=O)C3CCC(F)(F)CC3)c(F)c2)nc2cnc(N[C@H]3CC[C@H](N(C)C)CC3)nc21 [Example 280, N-[4-[2-[[4-(Dimethylamino)cyclohexyl]amino]-8-isopropyl-7-oxo-pteridin-6-yl]-2-fluoro-phenyl]-4,4-difluoro-cyclohexanesulfonamide]
18 | 0.1 | CC(C)n1c(=O)c(-c2ccc(NS(=O)(=O)CC3Cc4ccccc4C3)c(F)c2)nc2cnc(N[C@H]3CC[C@H](N(C)C)CC3)nc21 [Example 268, N-[4-[2-[[4-(Dimethylamino)cyclohexyl]amino]-8-isopropyl-7-oxo-pteridin-6-yl]-2-fluoro-phenyl]-1-indan-2-yl-methanesulfonamide]
19 | 0.5 | Cc1cc(-c2nc3cnc(N[C@@H]4CNC[C@@H](F)C4)nc3n(C(C)C)c2=O)cc(F)c1NS(=O)(=O)Cc1ccccc1 [Compound 72, N-[2-Fluoro-4-[2-[[(3S,5S)-5-fluoro-3-piperidyl]amino]-8-isopropyl-7-oxo-pteridin-6-yl]-6-methyl-phenyl]-1-phenyl-methanesulfonamide]
20 | 0.12 | CC(C)n1c(=O)c(-c2ccc(NS(=O)(=O)Cc3ccccc3)c(F)c2)nc2cnc(N[C@H]3CC[C@H](N(C)CCF)CC3)nc21 [Compound 183, N-(2-fluoro-4-(2-(((1r,4r)-4-((2-fluoroethyl)(methyl)amino)cyclohexyl)amino)-8-isopropyl-7-oxo-7,8-dihydropteridin-6-yl)phenyl)-1-phenylmethanesulfonamide]
21 | 0.05 | COCCN(C)[C@H]1CC[C@H](Nc2ncc3cc(-c4ccc(NS(=O)(=O)Cc5ccc(F)cc5)c(F)c4)c(=O)n(C(C)C)c3n2)CC1 [Compound 123, N-(2-Fluoro-4-(8-isopropyl-2-(((1r,4r)-4-((2-methoxyethyl)(methyl)amino)cyclohexyl)amino)-7-oxo-7,8-dihydropyrido[2,3-d]pyrimidin-6-yl)phenyl)-1-(4-fluorophenyl)methanesulfonamide]
22 | 72 | CC(C)n1c(=O)c(-c2ccc(NS(=O)(=O)CCC(F)(F)F)c(F)c2)cc2cnc(N[C@H]3CCC[C@H](N(C)C)C3)nc21 [Compound 104, hydrochloride]
23 | 0.14 | COc1ccc(CS(=O)(=O)Nc2c(F)cc(-c3cc4cnc(N[C@@H]5CNC[C@@H](F)C5)nc4n(C(C)C)c3=O)c(F)c2F)cc1 [Compound 57, 1-(4-Methoxyphenyl)-N-(2,3,6-trifluoro-4-(2-(((3S,5S)-5-fluoropiperidin-3-yl)amino)-8-isopropyl-7-oxo-7,8-dihydropyrido[2,3-d]pyrimidin-6-yl)phenyl)methanesulfonamide]
24 | 0.3 | CC(C)n1c(=O)c(-c2ccc(NS(=O)(=O)CCC(F)(F)F)nc2)cc2cnc(N[C@H]3CC[C@H](N(C)CCF)CC3)nc21 [Compound 143, 3,3,3-Trifluoro-N-(5-(2-(((1r,4r)-4-((2-fluoroethyl)(methyl)amino)cyclohexyl)amino)-8-isopropyl-7-oxo-7,8-dihydropyrido[2,3-d]pyrimidin-6-yl)pyridin-2-yl)propane-1-sulfonamide]
25 | 0.12 | COCCN(C)[C@H]1CC[C@H](Nc2ncc3cc(-c4ccc(NS(=O)(=O)Cc5ccccc5)c(F)c4)c(=O)n(C(C)C)c3n2)CC1 [Compound 124, N-(2-Fluoro-4-(8-isopropyl-2-(((1r,4r)-4-((2-methoxyethyl)(methyl)amino)cyclohexyl)amino)-7-oxo-7,8-dihydropyrido[2,3-d]pyrimidin-6-yl)phenyl)-1-phenylmethanesulfonamide hydrochloride]
